Reference: ChEMBL document CHEMBL3885861, “Open TG-GATES”

Organism: Rattus norvegicus
Assay: Open TG-GATES - Regimen: Single
Type: toxicity, organism-based, Sprague-Dawley
Design: regimen Single, gender Male, age 6 weeks
Conditions: in vivo, po, route gavage; for TP / gamma-GTP / ALP / ALT / AST / BUN / CRE / Ca / Cl / DBIL / GLC / IP / K / LDH / Na / PL / RALB / TBIL / TC / TG: tissue Plasma; for APTT / Bas / Eos / Fbg / Hb / Ht / Lym / MCH / MCHC / MCV / Mono / Neu / PT / Plat / RBC / Ret / WBC: tissue Blood; for KIDNEY_L / KIDNEY_R / KIDNEY_TOTAL: tissue Kidney; for LIVER: tissue Liver
[1] = 300 mg/kg, 24 h, dose level Low
[2] = 1000 mg/kg, 3 h, dose level Middle
[3] = 1000 mg/kg, 6 h, dose level Middle
[4] = 1000 mg/kg, 9 h, dose level Middle
[5] = 1000 mg/kg, 24 h, dose level Middle
[6] = 2000 mg/kg, 3 h, dose level High
[7] = 2000 mg/kg, 6 h, dose level High
[8] = 2000 mg/kg, 9 h, dose level High
[9] = 2000 mg/kg, 24 h, dose level High

## CCOc1ccc(NC(C)=O)cc1 [PHENACETIN]
[1]
  TP: 5.7 g/dL
  gamma-GTP: 1.2 IU/L
[2]
  TERMINAL_BW: 211.4 g
  APTT: 16.8 s
  Bas: 0%
  Eos: 1%
  Fbg: 302.8 mg/dL
  Hb: 13.4 g/dL
  Ht: 39.6%
  Lym: 75.6%
  MCH: 20.9 pg
  MCHC: 33.9%
  MCV: 61.6 fL
  Mono: 2.8%
  Neu: 20.4%
  PT: 13.9 s
  Plat: 119.7 x10_4/uL
  RBC: 643.4 x10_4/ul
  Ret: 8.8%
  WBC: 62.5 x10_2/uL
  KIDNEY_L: 0.9 g
  KIDNEY_R: 0.9 g
  KIDNEY_TOTAL: 1.8 g
  LIVER: 9.2 g
  ALP: 1732.2 IU/L
  ALT: 35 IU/L
  AST: 69 IU/L
  BUN: 9.4 mg/dL
  CRE: 0.1 mg/dL
  Ca: 11 mg/dL
  Cl: 100.4 meq/L
  DBIL: 0 mg/dL
  GLC: 232 mg/dL
  IP: 10.8 mg/dL
  K: 3.6 meq/L
  LDH: 64.8 IU/L
  Na: 139.8 meq/L
  PL: 150.8 mg/dL
  RALB: 2.6 g/dL
  TBIL: 0.032 mg/dL
  TC: 87 mg/dL
  TG: 50.6 mg/dL
  TP: 5.5 g/dL
  gamma-GTP: 1.4 IU/L
[3]
  TERMINAL_BW: 206.1 g
  APTT: 18 s
  Bas: 0%
  Eos: 0.2%
  Fbg: 311.4 mg/dL
  Hb: 13.9 g/dL
  Ht: 40.7%
  Lym: 73.2%
  MCH: 21.1 pg
  MCHC: 34.2%
  MCV: 61.6 fL
  Mono: 2%
  Neu: 24.2%
  PT: 14.2 s
  Plat: 124.9 x10_4/uL
  RBC: 661 x10_4/ul
  Ret: 9%
  WBC: 54.6 x10_2/uL
  KIDNEY_L: 0.9 g
  KIDNEY_R: 0.9 g
  KIDNEY_TOTAL: 1.9 g
  LIVER: 8.8 g
  ALP: 1388 IU/L
  ALT: 40.4 IU/L
  AST: 76 IU/L
  BUN: 11.2 mg/dL
  CRE: 0.1 mg/dL
  Ca: 10.9 mg/dL
  Cl: 102.6 meq/L
  DBIL: 0 mg/dL
  GLC: 188.4 mg/dL
  IP: 9.8 mg/dL
  K: 4 meq/L
  LDH: 73.6 IU/L
  Na: 139.2 meq/L
  PL: 151.8 mg/dL
  RALB: 2.6 g/dL
  TBIL: 0.04 mg/dL
  TC: 94.2 mg/dL
  TG: 23.4 mg/dL
  TP: 5.6 g/dL
  gamma-GTP: 1.2 IU/L
[4]
  TERMINAL_BW: 205.3 g
  APTT: 17.2 s
  Bas: 0%
  Eos: 1%
  Fbg: 302.6 mg/dL
  Hb: 14 g/dL
  Ht: 40.8%
  Lym: 76.2%
  MCH: 21.1 pg
  MCHC: 34.3%
  MCV: 61.4 fL
  Mono: 3.4%
  Neu: 18.6%
  PT: 14.1 s
  Plat: 120 x10_4/uL
  RBC: 664.6 x10_4/ul
  Ret: 8.5%
  WBC: 49.5 x10_2/uL
  KIDNEY_L: 0.9 g
  KIDNEY_R: 0.9 g
  KIDNEY_TOTAL: 1.9 g
  LIVER: 8.8 g
  ALP: 1337.2 IU/L
  ALT: 38.6 IU/L
  AST: 70.2 IU/L
  CRE: 0.1 mg/dL
  Ca: 10.9 mg/dL
  Cl: 101.6 meq/L
  DBIL: 0.006 mg/dL
  GLC: 205.2 mg/dL
  IP: 9 mg/dL
  K: 3.9 meq/L
  LDH: 82 IU/L
  PL: 160.6 mg/dL
  RALB: 2.6 g/dL
  TBIL: 0.046 mg/dL
  TC: 95.2 mg/dL
  TG: 32.6 mg/dL
  TP: 5.6 g/dL
  gamma-GTP: 1.2 IU/L
[5]
  TERMINAL_BW: 204.2 g
  APTT: 17 s
  Bas: 0%
  Eos: 1%
  Fbg: 291.6 mg/dL
  Hb: 13.4 g/dL
  Ht: 40.1%
  Lym: 69%
  MCH: 20.5 pg
  MCHC: 33.5%
  MCV: 61.2 fL
  Mono: 3.2%
  Neu: 26.2%
  Plat: 127.8 x10_4/uL
  RBC: 654.4 x10_4/ul
  Ret: 7.5%
  WBC: 82.6 x10_2/uL
  KIDNEY_L: 1 g
  KIDNEY_R: 1 g
  KIDNEY_TOTAL: 1.9 g
  LIVER: 8.7 g
  ALP: 1673.4 IU/L
  ALT: 53.6 IU/L
  AST: 118.8 IU/L
  BUN: 13.6 mg/dL
  CRE: 0.2 mg/dL
  Ca: 10.9 mg/dL
  Cl: 105 meq/L
  DBIL: 0.038 mg/dL
  GLC: 167 mg/dL
  IP: 9.2 mg/dL
  K: 4.6 meq/L
  LDH: 202.2 IU/L
  Na: 141.6 meq/L
  PL: 166.6 mg/dL
  RALB: 2.6 g/dL
  TBIL: 0.052 mg/dL
  TC: 97.2 mg/dL
  TG: 92.4 mg/dL
  TP: 5.6 g/dL
  gamma-GTP: 1.2 IU/L
[6]
  TERMINAL_BW: 214.4 g
  APTT: 17.5 s
  Bas: 0%
  Eos: 1%
  Fbg: 307.2 mg/dL
  Hb: 13.9 g/dL
  Ht: 41%
  Lym: 76.8%
  MCH: 21.2 pg
  MCHC: 33.8%
  Mono: 2.8%
  Neu: 19%
  PT: 14.2 s
  Plat: 115.4 x10_4/uL
  RBC: 652.4 x10_4/ul
  Ret: 9%
  WBC: 60.2 x10_2/uL
  KIDNEY_L: 0.9 g
  KIDNEY_R: 1 g
  KIDNEY_TOTAL: 1.9 g
  LIVER: 9.2 g
  ALP: 1540.4 IU/L
  ALT: 39.8 IU/L
  AST: 70.4 IU/L
  BUN: 10.2 mg/dL
  CRE: 0.1 mg/dL
  Ca: 11 mg/dL
  Cl: 99.4 meq/L
  DBIL: 0 mg/dL
  GLC: 240.4 mg/dL
  K: 3.7 meq/L
  LDH: 78 IU/L
  Na: 139 meq/L
  RALB: 2.6 g/dL
  TBIL: 0.034 mg/dL
  TG: 47.4 mg/dL
  TP: 5.5 g/dL
  gamma-GTP: 1 IU/L
[7]
  TERMINAL_BW: 209.5 g
  Bas: 0%
  Eos: 0.4%
  Fbg: 308.8 mg/dL
  Ht: 40.1%
  Lym: 74.2%
  MCH: 21.2 pg
  MCV: 61.4 fL
  Mono: 2.2%
  PT: 14.2 s
  Plat: 115.7 x10_4/uL
  RBC: 653.8 x10_4/ul
  Ret: 8.4%
  WBC: 47.7 x10_2/uL
  KIDNEY_L: 0.9 g
  KIDNEY_R: 0.9 g
  KIDNEY_TOTAL: 1.8 g
  LIVER: 9.1 g
  ALP: 1249 IU/L
  ALT: 45.6 IU/L
  AST: 84 IU/L
  BUN: 10.2 mg/dL
  CRE: 0.1 mg/dL
  Ca: 11.1 mg/dL
  Cl: 103 meq/L
  DBIL: 0 mg/dL
  GLC: 192.2 mg/dL
  IP: 9.9 mg/dL
  K: 3.8 meq/L
  LDH: 93.2 IU/L
  Na: 139.2 meq/L
  PL: 136.4 mg/dL
  RALB: 2.7 g/dL
  TBIL: 0.032 mg/dL
  TC: 83.8 mg/dL
  TP: 5.6 g/dL
  gamma-GTP: 1.2 IU/L
[8]
  TERMINAL_BW: 210.8 g
  APTT: 16.8 s
  Bas: 0%
  Eos: 0.4%
  Fbg: 288.4 mg/dL
  Hb: 13.3 g/dL
  Ht: 38.1%
  Lym: 73.6%
  MCH: 20.9 pg
  MCHC: 35%
  MCV: 59.8 fL
  Mono: 3.2%
  Neu: 22%
  PT: 14.3 s
  Plat: 123.9 x10_4/uL
  RBC: 638.6 x10_4/ul
  Ret: 8.7%
  WBC: 54.6 x10_2/uL
  KIDNEY_L: 0.9 g
  KIDNEY_R: 0.9 g
  KIDNEY_TOTAL: 1.8 g
  LIVER: 9 g
  ALP: 1259 IU/L
  ALT: 40.6 IU/L
  AST: 70.8 IU/L
  BUN: 10.2 mg/dL
  CRE: 0.1 mg/dL
  Ca: 10.9 mg/dL
  Cl: 101.2 meq/L
  DBIL: 0 mg/dL
  GLC: 205.6 mg/dL
  IP: 9.1 mg/dL
  K: 3.6 meq/L
  LDH: 66.8 IU/L
  Na: 137.6 meq/L
  PL: 163 mg/dL
  RALB: 2.5 g/dL
  TBIL: 0.034 mg/dL
  TC: 99.6 mg/dL
  TG: 18 mg/dL
  TP: 5.5 g/dL
  gamma-GTP: 1.6 IU/L
[9]
  TERMINAL_BW: 193.2 g
  APTT: 18.2 s
  Bas: 0.6%
  Eos: 0.6%
  Fbg: 273.4 mg/dL
  Hb: 14.2 g/dL
  Ht: 41.5%
  Lym: 75%
  MCH: 20.8 pg
  MCHC: 34.2%
  MCV: 60.7 fL
  Mono: 2.6%
  Neu: 20.8%
  PT: 14.5 s
  Plat: 138.6 x10_4/uL
  RBC: 684.2 x10_4/ul
  Ret: 7.5%
  WBC: 70 x10_2/uL
  KIDNEY_L: 0.9 g
  KIDNEY_R: 1 g
  KIDNEY_TOTAL: 1.9 g
  LIVER: 7.5 g
  ALP: 1341.4 IU/L
  ALT: 44.8 IU/L
  AST: 115 IU/L
  BUN: 12 mg/dL
  CRE: 0.2 mg/dL
  Ca: 10.7 mg/dL
  Cl: 104.2 meq/L
  DBIL: 0.024 mg/dL
  GLC: 171.2 mg/dL
  IP: 9.6 mg/dL
  K: 4.3 meq/L
  LDH: 206 IU/L
  Na: 140.8 meq/L
  PL: 150.6 mg/dL
  RALB: 2.7 g/dL
  TBIL: 0.046 mg/dL
  TC: 90.4 mg/dL
  TG: 52.6 mg/dL
  TP: 5.7 g/dL
  gamma-GTP: 1 IU/L
